33 compounds from US12091411B2, “IRAK degraders and uses thereof” (Kymera Therapeutics, Inc., priority 2022, dated 2024) can be followed below.

Read-outs that look alike come from different tables or passages of the source.

In the test the target is T1, IRAK4 (Homo sapiens, UniProt Q9NWZ3).
T1 construct: Degradation of IRAK4 in OCI-LY10 was quantitatively measured using Meso Scale Discovery technology; endogenous in cells; host or cells: OCI-LY10
T1 sequence (Q9NWZ3 1-460): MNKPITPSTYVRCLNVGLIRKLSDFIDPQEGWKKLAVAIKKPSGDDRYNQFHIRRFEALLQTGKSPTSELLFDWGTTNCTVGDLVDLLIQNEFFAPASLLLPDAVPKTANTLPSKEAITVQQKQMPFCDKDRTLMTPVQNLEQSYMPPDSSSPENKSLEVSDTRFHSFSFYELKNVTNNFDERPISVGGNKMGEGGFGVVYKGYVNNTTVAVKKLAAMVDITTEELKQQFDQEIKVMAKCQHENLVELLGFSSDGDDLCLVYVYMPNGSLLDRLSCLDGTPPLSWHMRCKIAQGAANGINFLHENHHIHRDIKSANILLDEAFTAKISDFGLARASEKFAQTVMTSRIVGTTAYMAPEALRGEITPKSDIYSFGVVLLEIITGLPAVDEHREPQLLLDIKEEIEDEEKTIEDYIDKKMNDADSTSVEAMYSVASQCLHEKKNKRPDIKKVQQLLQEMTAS
The test is described as follows: IRAK4 MSD Degradation in OCI-LY10. In kind it is cell-based. As to conditions: OCI-LY10 cells, MSD. In a few lines:
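DC50, from a three-parameter logistic fit and reported as letter bins A (<0.01 μM), B, C, D (>0.2 μM or not tested), reflects IRAK4 loss measured by MSD electrochemiluminescence in OCI-LY10 lysates. Treatment: 8 doses, 1:3 steps, top 1 to 10 μM, 4 to 24 h, 37 °C.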

Setting [1] is: 4 hrs incubation, read-out: IRAK4 degradation in OCI-LY10 at 4 hrs: DC50.
Setting [2] is: 24 hrs incubation, read-out: IRAK4 degradation in OCI-LY10 at 24 hrs: DC50.

As to `Cn1c(=O)n(C2CCC(=O)NC2=O)c2cccc(C#CCO[C@H]3CCN(C[C@H]4CC[C@H](n5cc(NC(=O)c6cnn7ccc(N8CCS(=O)(=O)CC8)nc67)c(C(F)F)n5)CC4)C[C@@H]3F)c21` (stereo partly drawn) [I-591], the DC50 (in general, the concentration giving 50% degradation) reads like this: under setting [1], greater than 0.2 µM; under setting [2], greater than 0.2 µM.

Regarding `Cn1c(=O)n(C2CCC(=O)NC2=O)c2cccc(C#CCO[C@H]3CCN(C[C@H]4CC[C@H](n5cc(NC(=O)c6cnn7ccc(N8CCS(=O)(=O)CC8)nc67)c(C(F)F)n5)CC4)C[C@H]3F)c21` (stereo partly drawn) [I-592], the DC50 is greater than 0.2 µM under setting [1] and greater than 0.2 µM under setting [2].

Take `Cn1c(=O)n(C2CCC(=O)NC2=O)c2cccc([C@H]3C[C@H](O[C@@H]4CCN(C[C@H]5CC[C@H](n6cc(NC(=O)c7cnn8ccc(N9C[C@H]%10C[C@@H]9CO%10)nc78)c(C(F)F)n6)CC5)C[C@@H]4F)C3)c21` (stereo partly drawn) [I-593]: the DC50 under setting [1] was greater than 0.2 µM and the DC50 under setting [2] is greater than 0.2 µM.

As for `Cn1c(=O)n(C2CCC(=O)NC2=O)c2cccc([C@H]3C[C@H](O[C@@H]4CCN(C[C@H]5CC[C@H](n6cc(NC(=O)c7cnn8ccc(N9C[C@H]%10C[C@@H]9CO%10)nc78)c(C(F)F)n6)CC5)C[C@H]4F)C3)c21` (stereo partly drawn) [I-594], the half-maximal degradation concentration (DC50) reads like this: under setting [1], greater than 0.2 µM; under setting [2], greater than 0.2 µM.

Regarding `Cn1c(=O)n(C2CCC(=O)NC2=O)c2cccc([C@H]3C[C@H](O[C@H]4CCN(C[C@H]5CC[C@H](n6cc(NC(=O)c7cnn8ccc(N9C[C@H]%10C[C@@H]9CO%10)nc78)c(C(F)F)n6)CC5)C[C@@H]4F)C3)c21` (stereo partly drawn) [I-595], the half-maximal degradation concentration (DC50) is, setting by setting: under setting [1], greater than 0.2 µM; under setting [2], greater than 0.2 µM.

Turning to `Cn1c(=O)n(C2CCC(=O)NC2=O)c2cccc([C@H]3C[C@H](O[C@H]4CCN(C[C@H]5CC[C@H](n6cc(NC(=O)c7cnn8ccc(N9C[C@H]%10C[C@@H]9CO%10)nc78)c(C(F)F)n6)CC5)C[C@H]4F)C3)c21` (stereo partly drawn) [I-596], the half-maximal degradation concentration (DC50) under setting [1] is greater than 0.2 µM and the DC50 under setting [2] is greater than 0.2 µM.

On to `Cn1c(=O)n(C2CCC(=O)NC2=O)c2cccc([C@H]3C[C@@H](COC4CN(C[C@H]5CC[C@H](n6cc(NC(=O)c7cnn8ccc(N9C[C@H]%10C[C@@H]9CO%10)nc78)c(C(F)F)n6)CC5)C4)C3)c21` (stereo partly drawn) [I-597], for which the DC50 by setting is: under setting [1], greater than 0.2 µM; under setting [2], less than 0.01 µM.

Turning to `Cn1c(=O)n(C2CCC(=O)NC2=O)c2cccc([C@H]3C[C@H](COC4CN(C[C@H]5CC[C@H](n6cc(NC(=O)c7cnn8ccc(N9C[C@H]%10C[C@@H]9CO%10)nc78)c(C(F)F)n6)CC5)C4)C3)c21` (stereo partly drawn) [I-598], the DC50 reads like this: under setting [1], greater than 0.2 µM; under setting [2], less than 0.01 µM.

Consider `Cn1c(=O)n(C2CCC(=O)NC2=O)c2cccc(N3CC(COC4CN(C[C@H]5CC[C@H](n6cc(NC(=O)c7cnn8ccc(N9C[C@H]%10C[C@@H]9CO%10)nc78)c(C(F)F)n6)CC5)C4)C3)c21` (stereo partly drawn) [I-599], for which the 50% degradation concentration (DC50) by setting is: under setting [1], greater than 0.2 µM; under setting [2], less than 0.01 µM.

For `Cn1c(=O)n(C2CCC(=O)NC2=O)c2cccc(C#CCOC3CN(C[C@H]4CC[C@H](n5cc(NC(=O)c6cnn7ccc(N8C[C@H]9C[C@@H]8CO9)nc67)c(C(F)F)n5)CC4)C3)c21` (stereo partly drawn) [I-600], the DC50 was greater than 0.2 µM under setting [1] and greater than 0.2 µM under setting [2].

For `Cn1c(=O)n(C2CCC(=O)NC2=O)c2cccc(N3CC(OC4CCN(C[C@H]5CC[C@H](n6cc(NC(=O)c7cnn8ccc(N9C[C@H]%10C[C@@H]9CO%10)nc78)c(C(F)F)n6)CC5)CC4)C3)c21` (stereo partly drawn) [I-601], the DC50 was greater than 0.2 µM under setting [1] and greater than 0.2 µM under setting [2].

As for `CN(C[C@H]1CC[C@H](n2cc(NC(=O)c3cnn4ccc(N5C[C@H]6C[C@@H]5CO6)nc34)c(C(F)F)n2)CC1)C1CN(c2cccc3c2n(C)c(=O)n3C2CCC(=O)NC2=O)C1` (stereo partly drawn) [I-602], the DC50 by setting is: under setting [1], greater than 0.2 µM; under setting [2], greater than 0.2 µM.

With `C[C@H]1CN(c2ccn3ncc(C(=O)Nc4cn([C@H]5CC[C@H](CN(C)C6CN(c7cccc8c7n(C)c(=O)n8C7CCC(=O)NC7=O)C6)CC5)nc4C(F)F)c3n2)CCO1` (stereo partly drawn) [I-603], the DC50 under setting [1] is greater than 0.2 µM and the DC50 under setting [2] is greater than 0.2 µM.

Turning to `Cn1c(=O)n(C2CCC(=O)NC2=O)c2cccc(N3CC(F)(CN4CCN(C[C@H]5CC[C@H](n6cc(NC(=O)c7cnn8ccc(N9C[C@H]%10CC9CO%10)nc78)c(C(F)F)n6)CC5)CC4)C3)c21` (stereo partly drawn) [I-604], the DC50 reads like this: under setting [1], greater than 0.2 µM; under setting [2], greater than 0.2 µM.

Consider `Cn1c(=O)n(C2CCC(=O)NC2=O)c2cccc(N3CC(O)(CN4CCN(C[C@H]5CC[C@H](n6cc(NC(=O)c7cnn8ccc(N9C[C@H]%10CC9CO%10)nc78)c(C(F)F)n6)CC5)CC4)C3)c21` (stereo partly drawn) [I-605], for which the 50% degradation concentration (DC50) reads like this: under setting [1], greater than 0.2 µM; under setting [2], less than 0.01 µM.

Turning to `COC1(CN2CCN(C[C@H]3CC[C@H](n4cc(NC(=O)c5cnn6ccc(N7C[C@H]8CC7CO8)nc56)c(C(F)F)n4)CC3)CC2)CN(c2cccc3c2n(C)c(=O)n3C2CCC(=O)NC2=O)C1` (stereo partly drawn) [I-606], the DC50 by setting is: under setting [1], greater than 0.2 µM; under setting [2], less than 0.01 µM.

As for `Cn1c(=O)n(C2CCC(=O)NC2=O)c2cccc(OC3CN(C[C@H]4CC[C@H](n5cc6cc(NC(=O)c7cccc(C(F)(F)F)n7)ccc6n5)CC4)C3)c21` (stereo partly drawn) [I-607], the 50% degradation concentration (DC50) under setting [1] is greater than 0.2 µM and the DC50 under setting [2] lay in the range of 0.01 to 0.1 µM.

In the case of `Cn1c(=O)n(C2CCC(=O)NC2=O)c2cccc(OC3CN(C[C@H]4CC[C@H](n5cc6cc(NC(=O)c7cccc(C(F)(F)F)n7)ncc6n5)CC4)C3)c21` (stereo partly drawn) [I-608], the DC50 runs as follows: under setting [1], greater than 0.2 µM; under setting [2], greater than 0.2 µM.

With `Cn1c(=O)n(C2CCC(=O)NC2=O)c2cccc(C3CN(C[C@H]4CC[C@H](n5cc6cc(NC(=O)c7cccc(C(F)(F)F)n7)ccc6n5)CC4)C3)c21` (stereo partly drawn) [I-609], the 50% degradation concentration (DC50) by setting is: under setting [1], greater than 0.2 µM; under setting [2], greater than 0.2 µM.

As to `Cn1c(=O)n(C2CCC(=O)NC2=O)c2cccc(C3CN(C[C@H]4CC[C@H](n5cc6cc(NC(=O)c7cccc(C(F)(F)F)n7)ncc6n5)CC4)C3)c21` (stereo partly drawn) [I-610], the half-maximal degradation concentration (DC50) runs as follows: under setting [1], greater than 0.2 µM; under setting [2], greater than 0.2 µM.

With `Cc1cccc(C(=O)Nc2ccc3nn([C@H]4CC[C@H](CN5CCC(c6cccc7c6n(C)c(=O)n7C6CCC(=O)NC6=O)C(F)(F)C5)CC4)cc3c2)n1` (stereo partly drawn) [I-611], the DC50 was greater than 0.2 µM under setting [1] and greater than 0.2 µM under setting [2].

With `Cn1c(=O)n(C2CCC(=O)NC2=O)c2cccc(C3CCN(C[C@H]4CC[C@H](n5cc6cc(NC(=O)c7cccc(C#N)n7)ccc6n5)CC4)CC3(F)F)c21` (stereo partly drawn) [I-612], the 50% degradation concentration (DC50) under setting [1] is greater than 0.2 µM and the half-maximal degradation concentration (DC50) under setting [2] is greater than 0.2 µM.

`Cn1c(=O)n(C2CCC(=O)NC2=O)c2cccc(C3CCN(C[C@H]4CC[C@H](n5cc6cc(NC(=O)c7cccc(C(F)F)n7)ccc6n5)CC4)CC3(F)F)c21` (stereo partly drawn) [I-613]: the half-maximal degradation concentration (DC50) reads like this: under setting [1], greater than 0.2 µM; under setting [2], less than 0.01 µM.

In the case of `Cc1cccc(C(=O)Nc2cc3cn([C@H]4CC[C@H](CN5CCC(c6cccc7c6n(C)c(=O)n7C6CCC(=O)NC6=O)C(F)(F)C5)CC4)nc3cn2)n1` (stereo partly drawn) [I-614], the 50% degradation concentration (DC50) was greater than 0.2 µM under setting [1] and less than 0.01 µM under setting [2].

`Cn1c(=O)n(C2CCC(=O)NC2=O)c2cccc(C3CCN(C[C@H]4CC[C@H](n5cc6cc(NC(=O)c7cccc(C#N)n7)ncc6n5)CC4)CC3(F)F)c21` (stereo partly drawn) [I-615]: the DC50 runs as follows: under setting [1], greater than 0.2 µM; under setting [2], less than 0.01 µM.

With `Cn1c(=O)n(C2CCC(=O)NC2=O)c2cccc(C3CCN(C[C@H]4CC[C@H](n5cc6cc(NC(=O)c7cccc(C(F)F)n7)ncc6n5)CC4)CC3(F)F)c21` (stereo partly drawn) [I-616], the DC50 was greater than 0.2 µM under setting [1] and less than 0.01 µM under setting [2].

Take `Cc1cccc(C(=O)Nc2cc3cn([C@H]4CC[C@H](CN5CCC(c6cccc7c6n(C)c(=O)n7C6CCC(=O)NC6=O)C(F)(F)C5)CC4)nc3cc2C(C)(C)O)n1` (stereo partly drawn) [I-617]: the 50% degradation concentration (DC50) is greater than 0.2 µM under setting [1] and less than 0.01 µM under setting [2].

In the case of `Cn1c(=O)n(C2CCC(=O)NC2=O)c2cccc(C3CCN(C[C@H]4CC[C@H](n5cc6cc(NC(=O)c7cccc(C#N)n7)c(C(C)(C)O)cc6n5)CC4)CC3(F)F)c21` (stereo partly drawn) [I-618], the DC50 under setting [1] is greater than 0.2 µM and the DC50 under setting [2] is less than 0.01 µM.

Consider `Cn1c(=O)n(C2CCC(=O)NC2=O)c2cccc(C3CCN(C[C@H]4CC[C@H](n5cc6cc(NC(=O)c7cccc(C(F)F)n7)c(C(C)(C)O)cc6n5)CC4)CC3(F)F)c21` (stereo partly drawn) [I-619], for which the 50% degradation concentration (DC50) was greater than 0.2 µM under setting [1] and less than 0.01 µM under setting [2].

Take `Cc1cccc(C(=O)Nc2ccc3nn([C@H]4CC[C@H](CN5CC[C@@H](c6cccc7c6n(C)c(=O)n7C6CCC(=O)NC6=O)[C@@H](F)C5)CC4)cc3c2)n1` (stereo partly drawn) [I-620]: the 50% degradation concentration (DC50) is, setting by setting: under setting [1], greater than 0.2 µM; under setting [2], greater than 0.2 µM.

With `Cc1cccc(C(=O)Nc2ccc3nn([C@H]4CC[C@H](CN5CC[C@@H](c6cccc7c6n(C)c(=O)n7C6CCC(=O)NC6=O)[C@H](F)C5)CC4)cc3c2)n1` (stereo partly drawn) [I-621], the DC50 under setting [1] is greater than 0.2 µM and the 50% degradation concentration (DC50) under setting [2] was greater than 0.2 µM.

Take `Cc1cccc(C(=O)Nc2ccc3nn([C@H]4CC[C@H](CN5CC[C@H](c6cccc7c6n(C)c(=O)n7C6CCC(=O)NC6=O)[C@@H](F)C5)CC4)cc3c2)n1` (stereo partly drawn) [I-622]: the half-maximal degradation concentration (DC50) is greater than 0.2 µM under setting [1] and greater than 0.2 µM under setting [2].

Regarding `Cc1cccc(C(=O)Nc2ccc3nn([C@H]4CC[C@H](CN5CC[C@H](c6cccc7c6n(C)c(=O)n7C6CCC(=O)NC6=O)[C@H](F)C5)CC4)cc3c2)n1` (stereo partly drawn) [I-623], the DC50 is greater than 0.2 µM under setting [1] and greater than 0.2 µM under setting [2].
